{"source": "patent US20170239289A1", "about": "“TREATMENT OF INFLAMMATION, RESPIRATORY TRACT INFECTIONS AND CYSTIC FIBROSIS” (Advanced Inhalation Therapies (AIT) Ltd., priority 2014, published 2017)", "key": {"C-reactive protein (CRP)": {"system": "C-reactive protein (CRP)", "experiment": "Example 4: CRP levels over time", "assay_type": "in vivo, human", "conditions": "three subjects with systemic inflammation (CRP greater than 5 mg/L) on Day 1", "protocol": "(§1) In addition to their standard care, subjects were administered three 30-minute inhalations per day of 160 ppm NO (with O2/air) for 10 working days (i.e., 5 days on treatment, 2 days off treatment, 5 days on treatment, for a total of 10 treatment days and 30 inhalations).\n(§2) Secondary Endpoints—Efficacy: • Comparison of FEV1 improvement before and after NO treatment Observational Endpoints: • To determine the reduction in bacterial and fungal sputum load during each week of NO treatment compared to bacterial sputum load before NO treatment • Assess the improvement of lung function indices during and after NO intermittent inhalation treatment as determined by spirometry (i.e., FVC, FEV1, FEV1/FVC, forced expiratory flow 25% to 75% (FEF 25-75)) • Evaluate C-reactive protein (CRP) levels over time • Number of subjects with study drug related bleeding at any time point"}, "Non-Mucoid P. aeruginosa": {"system": "Non-Mucoid P. aeruginosa", "experiment": "Example 4: bacterial and fungal sputum load", "assay_type": "in vivo", "protocol": "as §1, §2\n(§3) Results of the bacterial and fungal sputum load analysis were highly variable, and due to limitations of the sampling and testing technique, must be interpreted with caution. Microbiology results were recorded from Day 1 to end of follow-up, for all samples taken during the study. In order for NO therapy to be efficient, a minimal exposure of the microbial population to NO for the whole duration of the study is required. […] Thus, data was analyzed only for cultures with positive results on Day 1. Furthermore, samples from 2 subjects (SO-01 and SO-02) were not analyzed by the central laboratory. A summary of the bacterial and fungal sputum results at Day 1 and Day 9 is presented according to subject in Table 18."}, "Achromobacter spp.": {"system": "Achromobacter spp.", "experiment": "Example 4: bacterial and fungal sputum load", "assay_type": "in vivo", "protocol": "as §1, §2, §3"}, "Total P. aeruginosa": {"system": "Total P. aeruginosa", "experiment": "Example 4: bacterial and fungal sputum load", "assay_type": "in vivo", "protocol": "as §1, §2, §3"}, "Aspergillus fumigatus": {"system": "Aspergillus fumigatus", "experiment": "Example 4: bacterial and fungal sputum load", "assay_type": "in vivo", "protocol": "as §1, §2, §3"}, "mucoid P. aeruginosa": {"system": "mucoid P. aeruginosa", "experiment": "Example 4: bacterial and fungal sputum load", "assay_type": "in vivo", "protocol": "as §1, §2, §3"}}, "data": [{"smiles": "[N]=O", "note": "[NO, nitric oxide]", "values": [{"measurement": "CRP levels from Day 1 to Day 10", "setting": "C-reactive protein (CRP)", "value": "decreased"}, {"measurement": "Non-Mucoid P. aeruginosa, % change from Day 1 to Day 9", "setting": "Non-Mucoid P. aeruginosa; Subject SC-02", "value": "+33.1%"}, {"measurement": "Non-Mucoid P. aeruginosa sputum load", "setting": "Non-Mucoid P. aeruginosa; Subject SC-02, Day 1", "value": 496, "unit": "CFU/mL × 10^−4"}, {"measurement": "Non-Mucoid P. aeruginosa sputum load", "setting": "Non-Mucoid P. aeruginosa; Subject SC-02, Day 9", "value": 660, "unit": "CFU/mL × 10^−4"}, {"measurement": "Non-Mucoid P. aeruginosa, % change from Day 1 to Day 9", "setting": "Non-Mucoid P. aeruginosa; Subject SC-04", "value": "−57.9", "unit": "%"}, {"measurement": "Non-Mucoid P. aeruginosa sputum load", "setting": "Non-Mucoid P. aeruginosa; Subject SC-04, Day 1", "value": "80,000 CFU/mL × 10^−4"}, {"measurement": "Non-Mucoid P. aeruginosa sputum load", "setting": "Non-Mucoid P. aeruginosa; Subject SC-04, Day 9", "value": "33,700 CFU/mL × 10^−4"}, {"measurement": "Non-Mucoid P. aeruginosa, % change from Day 1 to Day 9", "setting": "Non-Mucoid P. aeruginosa; Subject SC-05", "value": "−89.3", "unit": "%"}, {"measurement": "Non-Mucoid P. aeruginosa sputum load", "setting": "Non-Mucoid P. aeruginosa; Subject SC-05, Day 1", "value": "29,200 CFU/mL × 10^−4"}, {"measurement": "Non-Mucoid P. aeruginosa sputum load", "setting": "Non-Mucoid P. aeruginosa; Subject SC-05, Day 9", "value": "3,110 CFU/mL × 10^−4"}, {"measurement": "Achromobacter spp., % change from Day 1 to Day 9", "setting": "Achromobacter spp.; Subject SC-03", "value": "−94.3", "unit": "%"}, {"measurement": "Achromobacter spp. sputum load", "setting": "Achromobacter spp.; Subject SC-03, Day 1", "value": 44.1, "unit": "CFU/mL × 10^−4"}, {"measurement": "Achromobacter spp. sputum load", "setting": "Achromobacter spp.; Subject SC-03, Day 9", "value": 2.50, "unit": "CFU/mL × 10^−4"}, {"measurement": "Total P. aeruginosa (central lab only), % change from Day 1 to Day 9", "setting": "Total P. aeruginosa; Subject SC-01", "value": "−3.7", "unit": "%"}, {"measurement": "Total P. aeruginosa (including Soroka lab), % change from Day 1 to Day 9", "setting": "Total P. aeruginosa; Subject SC-01", "value": "−3.7", "unit": "%"}, {"measurement": "Total P. aeruginosa (central lab only) sputum load", "setting": "Total P. aeruginosa; Subject SC-01, Day 1", "value": "2,700 CFU/mL × 10^−4"}, {"measurement": "Total P. aeruginosa (including Soroka lab) sputum load", "setting": "Total P. aeruginosa; Subject SC-01, Day 1", "value": "2,700 CFU/mL × 10^−4"}, {"measurement": "Total P. aeruginosa (central lab only) sputum load", "setting": "Total P. aeruginosa; Subject SC-01, Day 9", "value": "2,600 CFU/mL × 10^−4"}, {"measurement": "Total P. aeruginosa (including Soroka lab) sputum load", "setting": "Total P. aeruginosa; Subject SC-01, Day 9", "value": "2,600 CFU/mL × 10^−4"}, {"measurement": "Total P. aeruginosa (central lab only), % change from Day 1 to Day 9", "setting": "Total P. aeruginosa; Subject SC-02", "value": "+33.1%"}, {"measurement": "Total P. aeruginosa (including Soroka lab), % change from Day 1 to Day 9", "setting": "Total P. aeruginosa; Subject SC-02", "value": "+33.1%"}, {"measurement": "Total P. aeruginosa (central lab only) sputum load", "setting": "Total P. aeruginosa; Subject SC-02, Day 1", "value": 496, "unit": "CFU/mL × 10^−4"}, {"measurement": "Total P. aeruginosa (including Soroka lab) sputum load", "setting": "Total P. aeruginosa; Subject SC-02, Day 1", "value": 496, "unit": "CFU/mL × 10^−4"}, {"measurement": "Total P. aeruginosa (central lab only) sputum load", "setting": "Total P. aeruginosa; Subject SC-02, Day 9", "value": 660, "unit": "CFU/mL × 10^−4"}, {"measurement": "Total P. aeruginosa (including Soroka lab) sputum load", "setting": "Total P. aeruginosa; Subject SC-02, Day 9", "value": 660, "unit": "CFU/mL × 10^−4"}, {"measurement": "Total P. aeruginosa (central lab only), % change from Day 1 to Day 9", "setting": "Total P. aeruginosa; Subject SC-04", "value": "−57.9", "unit": "%"}, {"measurement": "Total P. aeruginosa (including Soroka lab), % change from Day 1 to Day 9", "setting": "Total P. aeruginosa; Subject SC-04", "value": "−57.9", "unit": "%"}, {"measurement": "Total P. aeruginosa (central lab only) sputum load", "setting": "Total P. aeruginosa; Subject SC-04, Day 1", "value": "80,000 CFU/mL × 10^−4"}, {"measurement": "Total P. aeruginosa (including Soroka lab) sputum load", "setting": "Total P. aeruginosa; Subject SC-04, Day 1", "value": "80,000 CFU/mL × 10^−4"}, {"measurement": "Total P. aeruginosa (central lab only) sputum load", "setting": "Total P. aeruginosa; Subject SC-04, Day 9", "value": "33,700 CFU/mL × 10^−4"}, {"measurement": "Total P. aeruginosa (including Soroka lab) sputum load", "setting": "Total P. aeruginosa; Subject SC-04, Day 9", "value": "33,700 CFU/mL × 10^−4"}, {"measurement": "Total P. aeruginosa (central lab only), % change from Day 1 to Day 9", "setting": "Total P. aeruginosa; Subject SC-05", "value": "−90.2", "unit": "%"}, {"measurement": "Total P. aeruginosa (including Soroka lab), % change from Day 1 to Day 9", "setting": "Total P. aeruginosa; Subject SC-05", "value": "−90.2", "unit": "%"}, {"measurement": "Total P. aeruginosa (central lab only) sputum load", "setting": "Total P. aeruginosa; Subject SC-05, Day 1", "value": "32,100 CFU/mL × 10^−4"}, {"measurement": "Total P. aeruginosa (including Soroka lab) sputum load", "setting": "Total P. aeruginosa; Subject SC-05, Day 1", "value": "32,100 CFU/mL × 10^−4"}, {"measurement": "Total P. aeruginosa (central lab only) sputum load", "setting": "Total P. aeruginosa; Subject SC-05, Day 9", "value": "3,140 CFU/mL × 10^−4"}, {"measurement": "Total P. aeruginosa (including Soroka lab) sputum load", "setting": "Total P. aeruginosa; Subject SC-05, Day 9", "value": "3,140 CFU/mL × 10^−4"}, {"measurement": "Total P. aeruginosa (including Soroka lab), % change from Day 1 to Day 9", "setting": "Total P. aeruginosa; Subject SO01", "value": "+611%"}, {"measurement": "Total P. aeruginosa (including Soroka lab) sputum load", "setting": "Total P. aeruginosa; Subject SO01, Day 1", "value": 450, "unit": "CFU/mL × 10^−4"}, {"measurement": "Total P. aeruginosa (including Soroka lab) sputum load", "setting": "Total P. aeruginosa; Subject SO01, Day 9", "value": "3,200 CFU/mL × 10^−4"}, {"measurement": "Total P. aeruginosa (including Soroka lab), % change from Day 1 to Day 9", "setting": "Total P. aeruginosa; Subject SO02", "value": "+250%"}, {"measurement": "Total P. aeruginosa (including Soroka lab) sputum load", "setting": "Total P. aeruginosa; Subject SO02, Day 1", "value": 100, "unit": "CFU/mL × 10^−4"}, {"measurement": "Total P. aeruginosa (including Soroka lab) sputum load", "setting": "Total P. aeruginosa; Subject SO02, Day 9", "value": 350, "unit": "CFU/mL × 10^−4"}, {"measurement": "Aspergillus fumigatus, % change from Day 1 to Day 9", "setting": "Aspergillus fumigatus; Subject SC-03", "value": "−100.0", "unit": "%"}, {"measurement": "Aspergillus fumigatus sputum load", "setting": "Aspergillus fumigatus; Subject SC-03, Day 1", "value": 2.00, "unit": "CFU/mL × 10^−4"}, {"measurement": "Aspergillus fumigatus sputum load", "setting": "Aspergillus fumigatus; Subject SC-03, Day 9", "value": 0, "unit": "CFU/mL × 10^−4"}, {"measurement": "Mucoid P. aeruginosa, % change from Day 1 to Day 9", "setting": "mucoid P. aeruginosa; Subject SC-01", "value": "−3.7", "unit": "%"}, {"measurement": "Mucoid P. aeruginosa sputum load", "setting": "mucoid P. aeruginosa; Subject SC-01, Day 1", "value": "2,700 CFU/mL × 10^−4"}, {"measurement": "Mucoid P. aeruginosa sputum load", "setting": "mucoid P. aeruginosa; Subject SC-01, Day 9", "value": "2,600 CFU/mL × 10^−4"}, {"measurement": "Mucoid P. aeruginosa, % change from Day 1 to Day 9", "setting": "mucoid P. aeruginosa; Subject SC-05", "value": "−99.9", "unit": "%"}, {"measurement": "Mucoid P. aeruginosa sputum load", "setting": "mucoid P. aeruginosa; Subject SC-05, Day 1", "value": "29,000 CFU/mL × 10^−4"}, {"measurement": "Mucoid P. aeruginosa sputum load", "setting": "mucoid P. aeruginosa; Subject SC-05, Day 9", "value": 30.0, "unit": "CFU/mL × 10^−4"}]}]}
